According to patent US20240398757A1 (COCRYSTAL PHARMA, INC., priority 2022, published 2024):

Target: T1, SARS2 protease (Severe acute respiratory syndrome coronavirus 2, UniProt P0DTD1)
T1 construct: SARS2 protease was added to a final concentration of 30 nM
Assay: SARS-CoV-2 protease inhibition assay (SARS2 FRET protease assay)
Type: biochemical
Details: IC50 (μM), SARS2 protease 30 nM, peptide substrate 1.3 μM, 120 minutes at 37° C., compounds 20 μM to 0.075 nM

Row | Structure (SMILES) | IC50 [µM]
1 | CCCC[C@H](NC(=O)OC(c1ccccc1)C(F)(F)c1cccc(F)c1)C(=O)N[C@@H](CC1CCNC1=O)C(=O)C(=O)NCC (stereo in doubt) [Compound A173, 2,2-difluoro-2-(3-fluorophenyl)-1-phenylethyl ((S)-1-(((S)-4-(ethylamino)-3,4-dioxo-1-((S)-2-oxopyrrolidin-3-yl)butan-2-yl)amino)-1-oxohexan-2-yl)carbamate] | 0.0386
2 | CC(C)C[C@H](NC(=O)OC(c1ccc(F)cc1)C(F)(F)c1cccc(Cl)c1)C(=O)N[C@H](C=O)C[C@@H]1CCNC1=O (some centres unmarked) [Compound A1] | 0.0001
3 | CC(C)C[C@H](NC(=O)OC(c1ccccc1)C(F)(F)c1cccc(F)c1)C(=O)N[C@H](C=O)C[C@@H]1CCNC1=O (some centres unmarked) [Compound A2] | 0.004
4 | CC(C)C[C@H](NC(=O)OC(c1ccccc1)C1(c2cccc(Cl)c2)CCCCC1)C(=O)N[C@@H](C[C@@H]1CCNC1=O)C(=O)C(=O)NC1CC1 (some centres unmarked) [Compound A3] | 0.52
5 | CC(C)C[C@H](NC(=O)O[C@@H](c1ccccc1)C(C)(C)c1cccc(Cl)c1)C(=O)N[C@@H](C[C@@H]1CCNC1=O)C(=O)C(=O)NC1CC1 [Compound A4] | 0.8
6 | CC(C)C[C@H](NC(=O)O[C@H](c1ccccc1)C(C)(C)c1cccc(Cl)c1)C(=O)N[C@@H](C[C@@H]1CCNC1=O)C(=O)C(=O)NC1CC1 [Compound A5] | 2.79
7 | CCC(CC)(c1cccc(Cl)c1)C(OC(=O)N[C@@H](CC(C)C)C(=O)N[C@@H](C[C@@H]1CCNC1=O)C(=O)C(=O)NC1CC1)c1ccccc1 (some centres unmarked) [Compound A6] | 0.24
8 | CC(C)C[C@H](NC(=O)OC(c1cccc(Cl)c1)C1(c2cccc(Cl)c2)CCC1)C(=O)N[C@H](C=O)C[C@@H]1CCNC1=O (some centres unmarked) [Compound A7] | 0.12
9 | CCCCCOC(=O)N[C@@H](CC(C)C)C(=O)N[C@@H](C[C@@H]1CCNC1=O)C(=O)C(=O)NC1CCN(C)CC1 [Compound A8] | 15
10 | CC(C)C[C@H](NC(=O)O[C@H](c1ccc(F)cc1)C(F)(F)c1cccc(Cl)c1)C(=O)N[C@@H](C[C@@H]1CCNC1=O)C(=O)C(=O)NC1CC1 [Compound A9] | 0.0001
11 | CC(C)C[C@H](NC(=O)OC(c1ccccc1)C(F)(F)c1cccc(F)c1)C(=O)N[C@@H](C[C@@H]1CCNC1=O)C(=O)C(=O)NC1CC1 (some centres unmarked) [Compound A10] | 0.005
12 | CC(C)C[C@H](NC(=O)OC(c1cccc(F)c1)C(C)(C)c1cccc(Cl)c1)C(=O)N[C@H](C=O)C[C@@H]1CCNC1=O (some centres unmarked) [Compound A11] | 0.0001
13 | CCCCCOC(=O)N[C@@H](CC(C)C)C(=O)N[C@@H](C[C@@H]1CCNC1=O)C(=O)C(=O)NC1CC1 [Compound A12] | 0.876
14 | CCCCCOC(=O)N[C@@H](CC(C)C)C(=O)N[C@H](C=O)C[C@@H]1CCNC1=O [Compound A13] | 0.08
15 | CCC(CC)(c1cccc(Cl)c1)C(OC(=O)N[C@@H](CC(C)C)C(=O)N[C@@H](C[C@@H]1CCNC1=O)C(=O)C(=O)NC1CC1)c1ccc(F)cc1 (some centres unmarked) [Compound A14] | 0.09
16 | CC(C)C[C@H](NC(=O)O[C@H](c1cccc(F)c1)C(C)(C)c1cccc(Cl)c1)C(=O)N[C@@H](C[C@@H]1CCNC1=O)C(=O)C(=O)NC1CC1 [Compound A15] | 0.31
17 | CC(C)C[C@H](NC(=O)OC(c1cccc(Cl)c1)C1(c2cccc(Cl)c2)CCC1)C(=O)N[C@@H](C[C@@H]1CCNC1=O)C(=O)C(=O)NC1CC1 (some centres unmarked) [Compound A16] | 0.38
18 | CCN1CCC(NC(=O)C(=O)[C@H](C[C@@H]2CCNC2=O)NC(=O)[C@H](CC(C)C)NC(=O)OC(c2ccccc2)C(CC)(CC)c2cccc(Cl)c2)CC1 (some centres unmarked) [Compound A17] | 30.3
19 | CCC(CC)(c1cccc(Cl)c1)C(OC(=O)N[C@@H](CC(C)C)C(=O)N[C@H](C=O)C[C@@H]1CCNC1=O)c1ccc(F)c(F)c1 (some centres unmarked) [Compound A18] | 0.01
20 | CCCCC[C@H](NC(=O)OC(c1ccccc1)C(F)(F)c1cccc(Cl)c1)C(=O)N[C@H](C=O)C[C@@H]1CCNC1=O (some centres unmarked) [Compound A19] | 0.007
21 | O=C[C@H](C[C@@H]1CCNC1=O)NC(=O)[C@H](CC1CCCCC1)NC(=O)OC(c1ccccc1)C(F)(F)c1cccc(Cl)c1 (some centres unmarked) [Compound A20] | 0.0003
22 | O=C(N[C@@H](CC1CCCCC1)C(=O)N[C@@H](C[C@@H]1CCNC1=O)C(=O)C(=O)NC1CC1)OC(c1ccccc1)C(F)(F)c1cccc(Cl)c1 (some centres unmarked) [Compound A21] | 0.06
23 | CCC(CC)(c1cccc(Cl)c1)C(OC(=O)N[C@@H](CC(C)C)C(=O)N[C@@H](C[C@@H]1CCNC1=O)C(=O)C(=O)NC1CC1)c1ccc(F)c(F)c1 (some centres unmarked) [Compound A22] | 0.32
24 | CCCCCOC(=O)N[C@@H](CC(C)C)C(=O)N[C@@H](C[C@@H]1CCNC1=O)C(=O)C(=O)NC1CCCCC1 [Compound A24] | 21.4
25 | CC(C)C[C@H](NC(=O)O[C@H](c1cccc(Cl)c1)C1(c2cccc(Cl)c2)CC1)C(=O)N[C@@H](C[C@@H]1CCNC1=O)C(=O)C(=O)NC1CC1 [Compound A30] | 0.1
26 | CC(C)C[C@H](NC(=O)O[C@@H](c1cccc(Cl)c1)C1(c2cccc(Cl)c2)CC1)C(=O)N[C@@H](C[C@@H]1CCNC1=O)C(=O)C(=O)NC1CC1 [Compound A31] | 0.007
27 | CCN1CCC(NC(=O)C(=O)[C@H](C[C@@H]2CCNC2=O)NC(=O)[C@H](CC(C)C)NC(=O)OC(c2ccc(F)cc2)C(CC)(CC)c2cccc(Cl)c2)CC1 (some centres unmarked) [Compound A32] | 10.1

Row | Structure (SMILES) | IC50 [µM]
28 | CCCCC[C@H](NC(=O)O[C@@H](c1ccccc1)C(F)(F)c1cccc(Cl)c1)C(=O)N[C@@H](C[C@@H]1CCNC1=O)C(=O)C(=O)NC1CC1 [Compound A33] | 0.3
29 | CC(C)(c1cccc(F)c1)C(OC(=O)N[C@@H](CC1CCCCC1)C(=O)N[C@H](C=O)C[C@@H]1CCNC1=O)c1ccccc1 (some centres unmarked) [Compound A34] | 0.0001
30 | CCC(CC)(c1cccc(Cl)c1)C(OC(=O)N[C@@H](CC(C)C)C(=O)N[C@@H](C[C@@H]1CCNC1=O)C(=O)C(=O)NC1CC1)c1cccc(Cl)c1 (some centres unmarked) [Compound A35] | 1.07
31 | CC(C)C[C@H](NC(=O)OC(c1ccc(Cl)cc1)C1(c2cccc(Cl)c2)CCCCC1)C(=O)N[C@@H](C[C@@H]1CCNC1=O)C(=O)C(=O)NC1CC1 (some centres unmarked) [Compound A36] | 1.15
32 | CCCC[C@H](NC(=O)OC(c1ccccc1)C(C)(C)c1cccc(F)c1)C(=O)N[C@H](C=O)C[C@@H]1CCNC1=O (some centres unmarked) [Compound A37] | 0.91
33 | CC(C)C[C@H](NC(=O)O[C@H](c1cccc(Cl)c1)C1(c2cccc(Cl)c2)CC1)C(=O)N[C@H](C=O)C[C@@H]1CCNC1=O [Compound A38] | 0.0034
34 | CC(C)C[C@H](NC(=O)OC(c1ccccc1)C(C)(C)c1cccc(F)c1)C(=O)NC(C)(C=O)C[C@@H]1CCNC1=O (some centres unmarked) [Compound A39] | 2.3
35 | CCCC[C@H](NC(=O)OC(c1ccccc1)C1(c2cccc(F)c2)CC1)C(=O)N[C@H](C=O)C[C@@H]1CCNC1=O (some centres unmarked) [Compound A40] | 0.003
36 | CC(C)C[C@H](NC(=O)OC(c1ccccc1)C(F)(F)c1cccc(Cl)c1)C(=O)N[C@H](C#N)C[C@@H]1CCNC1=O (some centres unmarked) [Compound A41] | 2.29
37 | CC(C)C[C@H](NC(=O)OC(c1ccccc1)C(C)(C)c1cccc(Cl)c1)C(=O)N[C@H](C=O)C[C@@H]1CCCNC1=O (some centres unmarked) [Compound A42] | 0.009
38 | CCCC[C@H](NC(=O)OC(c1ccccc1)C(C)(C)c1cccc(F)c1)C(=O)N[C@@H](C[C@@H]1CCNC1=O)C(=O)C(=O)NC1CC1 (some centres unmarked) [Compound A43] | 0.26
39 | CCC(CC)(c1cccc(Cl)c1)C(OC(=O)N[C@@H](CC(C)C)C(=O)N[C@@H](C[C@@H]1CCNC1=O)C(=O)C(=O)NC1CC1)c1ccc(Cl)cc1 (some centres unmarked) [Compound A44] | 0.74
40 | CC(C)C[C@H](NC(=O)O[C@H](c1ccc(Cl)cc1)C1(c2cccc(Cl)c2)CC1)C(=O)N[C@H](C=O)C[C@@H]1CCNC1=O [Compound A45] | 0.02
41 | CCC(CC)(c1cccc(Cl)c1)C(OC(=O)N[C@@H](CC(C)C)C(=O)N[C@H](C=O)C[C@@H]1CCNC1=O)c1ccc(Cl)cc1 (some centres unmarked) [Compound A46] | 1.74
42 | CC(C)(c1cccc(F)c1)C(OC(=O)N[C@@H](CC1CCCCC1)C(=O)N[C@@H](C[C@@H]1CCNC1=O)C(=O)C(=O)NC1CC1)c1ccccc1 (some centres unmarked) [Compound A47] | 0.62
43 | CC(C)C[C@H](NC(=O)OC(c1ccc(Cl)cc1)C1(c2cccc(Cl)c2)CCCCC1)C(=O)N[C@H](C=O)C[C@@H]1CCNC1=O (some centres unmarked) [Compound A49] | 0.38
44 | CCNC(=O)C(=O)[C@H](C[C@@H]1CCNC1=O)NC(=O)[C@H](CC1CCCCC1)NC(=O)OC(c1ccccc1)C(F)(F)c1cccc(Cl)c1 (some centres unmarked) [Compound A50] | 0.01
45 | CCCC[C@H](NC(=O)OC(c1ccccc1)C(F)(F)c1cccc(Cl)c1)C(=O)N[C@@H](C[C@@H]1CCNC1=O)C(=O)C(=O)NC1CC1 (some centres unmarked) [Compound A51] | 0.13
46 | CC(C)C[C@H](NC(=O)OC(c1ccccc1)C1(c2cccc(Cl)c2)CCNCC1)C(=O)N[C@@H](C[C@@H]1CCNC1=O)C(=O)C(=O)NC1CC1 (some centres unmarked) [Compound A52] | 1.42
47 | CC(C)C[C@H](NC(=O)O[C@@H](c1cccc(Cl)c1)C1(c2cccc(Cl)c2)CCCCC1)C(=O)N[C@H](C=O)C[C@@H]1CCNC1=O [Compound A54] | 0.14
48 | CCCC[C@H](NC(=O)OC(c1ccc(F)cc1)C(F)(F)c1cccc(F)c1)C(=O)N[C@H](C=O)C[C@@H]1CCNC1=O (some centres unmarked) [Compound A55] | 0.01
49 | CCCC[C@H](NC(=O)OC(c1ccccc1)C1(c2cccc(F)c2)CC1)C(=O)N[C@@H](C[C@@H]1CCNC1=O)C(=O)C(=O)NC1CC1 (some centres unmarked) [Compound A56] | 0.56
50 | CC(C)C[C@H](NC(=O)OC(c1ccccc1)C(C)(C)c1cccc(Cl)c1)C(=O)N[C@@H](C[C@@H]1CCCNC1=O)C(=O)C(=O)NC1CC1 (some centres unmarked) [Compound A57] | 1.13
51 | CCCC[C@H](NC(=O)OC(c1ccc(F)cc1)C(F)(F)c1cccc(F)c1)C(=O)N[C@@H](C[C@@H]1CCNC1=O)C(=O)C(=O)NC1CC1 (some centres unmarked) [Compound A58] | 0.16
52 | CC(C)C[C@H]1C(=O)N[C@H](C[C@@H]2CCNC2=O)[C@H](O)N1C(=O)OC(c1ccccc1)C1(c2cccc(Cl)c2)CCNCC1 (some centres unmarked) [Compound A59] | 16.1
53 | CC(C)C[C@H](NC(=O)O[C@H](c1ccc(Cl)cc1)C1(c2cccc(Cl)c2)CC1)C(=O)N[C@@H](C[C@@H]1CCNC1=O)C(=O)C(=O)NC1CC1 [Compound A60] | 1.91
